The values below come from patent US20250098675A1, “A METHOD OF CONTROLLING RESISTANT AND NON-RESISTANT PESTS” (UPL CORPORATION LIMITED, priority 2021, published 2025).

Read-outs that look alike come from different tables or passages of the source.

Format in all cases: in vivo
In series [1] the test system is resistant Mahanarva fimbriolata. Kind of series: Greenhouse pot trial, drench, mortality of resistant nymphs. The settings on record: for mortality at 400 g/ha / mortality at 250 g/ha: Mahanarva fimbriolata, soil; for mortality at 400 g/ha: read-out: Mortality (%) of Nymphs-Resistant population % Mortality, 400 g.a.i/ha; for mortality at 250 g/ha: read-out: Mortality (%) of Nymphs-Resistant population % Mortality, 250 g.a.i/ha. The method, then:
The sugarcane plants were sown under greenhouse in pots. Artificially, each pot was infested with 10 nymphs in 3rd/4th instar. Infestation was done 24 h before of application for insect acclimatization. The treatments were applied via drenching, after infestation. The assessments were made at 3 and 5 days after infestation in 4 replications.

In the next series the test system is Mahanarva fimbriolata. Kind of series: Field trial, % control of Mahanarva fimbriolata nymphs and adult insects in sugarcane. The method, then: Trials were carried out in field to assess efficacy of flupyrimin against Mahanarva fimbriolata. Evaluation was done to check % control of nymphs and adult insects at intervals of 30 DAA and 60 DAA (for nymphs) and 7, 30 and 60 DAA (for adult insects). The efficacy was compared with standard insecticides thiamethoxam and ethiprole.

Series [2] has as its system larvae Sphenophorus levis. Kind of series: Larvae bioassay, residual contact and ingestion, dipped sugarcane stalks. The settings on record: for Larvae efficacy control (%): 1DAA. The method, then:
The efficacy of flupyrimin was determined against the larvae stage of Sphenophorus levis. Accordingly, the larvae bioassay method was residual contact and ingestion. The sugarcane stalks were dipped in a insecticide solution then placed on a papart towel to dry. The sugarcane stalks were placed in glass tubes, then S. levis first stage and last instar lavae were introduced in each tube separately. The mortality achieved was 100% at 1 DAA. The treatments condidtions and the results are depicted in Table 8 below: […]

In another series the test system is adult Sphenophorus levis. Kind of series: Control efficacy against adults, plots sprayed. The method, then: The efficacy of flupyrimin was determined against adult and the larvae stage of Sphenophorus levis. To evaluate the efficacy of flupyrimin plots with ten Sphenophorus levis adults were populated. Flupyrimin at a concentration of 500 g/L was used to treat the plots by spraying. Each plot received a 10 cm splitted lengthwise suarcane stem piece as feed and accordingly each plot was subjected to treatment conditions as depicted in the table below.

Take `CC[S+]([O-])c1c(C#N)nn(-c2c(Cl)cc(C(F)(F)F)cc2Cl)c1N` (centres unmarked) [Ethiprole, ethiprole]: the mortality at 400 g/ha was 33% in series [1] (0 DAA 3 DAI) and 45% in series [1] (0 DAA 5 DAI). In addition, the “Adults % Control” value with Mahanarva fimbriolata (400 g a.i./ha, 7 DAA) turned out to be 100%; in the series on Mahanarva fimbriolata (400 g a.i./ha, 30 DAA) it was 100%; in the series with Mahanarva fimbriolata (400 g a.i./ha, 60 DAA), 100%. The “Nymphs % Control” value in the series on Mahanarva fimbriolata (400 g a.i./ha, 30 DAA) was determined as 95%; in the series on Mahanarva fimbriolata (400 g a.i./ha, 60 DAA), 100%.
Regarding `O=C(N=c1ccccn1Cc1ccc(Cl)nc1)C(F)(F)F` [Flupyrimin, flupyrimin], the “Larvae efficacy control (%)” value in series [2] (150 g of a.i/ha (0.30 kg-l/ha)), in series [2] (250 g of a.i/ha (0.50 kg-l/ha)), in series [2] (300 g of a.i/ha (0.60 kg-l/ha)) and in series [2] (500 g of a.i/ha (1.00 kg-l/ha)) was 100% throughout. In addition, the “mortality of S. levis larvae” value in series [2] (first stage and last instar larvae, 1 DAA, no dose stated) came to 100%. Besides, the “Mortality (%) of Nymphs-Resistant population % Mortality” value in series [1] (150 g.a.i/ha, 0 DAA 3 DAI) was 85%; in series [1] (150 g.a.i/ha, 0 DAA 5 DAI) it was 98%; in series [1] (200 g.a.i/ha, 0 DAA 3 DAI), 97%; in series [1] (200 g.a.i/ha, 0 DAA 5 DAI), 100%; in series [1] (250 g.a.i/ha, 0 DAA 3 DAI), 98%; in series [1] (250 g.a.i/ha, 0 DAA 5 DAI), 98%. Also, the “Mortality (%) of Nymphs-Resistant population % Mortality” value was 97% in series [1] (300 g.a.i/ha, 0 DAA 3 DAI) and 100% in series [1] (300 g.a.i/ha, 0 DAA 5 DAI). Further, the “control of resistant nymphs (in words)” value in series [1] (summary of the table, no dose stated) is on record as “effective in completely controlling resistant nymphs”. Further, in the series on adult Sphenophorus levis (9 DAA, no dose stated), the “control of S. levis adults (in words)” value is “almost complete control”. For the same molecule, the “Adults efficacy control (%)” value in the series with adult Sphenophorus levis (150 g of a.i/ha (0.30 kg-l/ha), 1DAA) is recorded as 46.3%; in the series on adult Sphenophorus levis (150 g of a.i/ha (0.30 kg-l/ha), second value column, time not printed), 75.1%; with adult Sphenophorus levis (150 g of a.i/ha (0.30 kg-l/ha), third value column, time not printed), 97.3%; in the series on adult Sphenophorus levis (250 g of a.i/ha (0.50 kg-l/ha), 1DAA), 61.0%; in the series with adult Sphenophorus levis (250 g of a.i/ha (0.50 kg-l/ha), second value column, time not printed) it was 80.9%; with adult Sphenophorus levis (250 g of a.i/ha (0.50 kg-l/ha), third value column, time not printed) it was 100%. Also, the “Adults efficacy control (%)” value in the series with adult Sphenophorus levis (300 g of a.i/ha (0.60 kg-l/ha), 1DAA) is reported as 59.5%; in the series on adult Sphenophorus levis (300 g of a.i/ha (0.60 kg-l/ha), second value column, time not printed) it was 79.5%; in the series with adult Sphenophorus levis (300 g of a.i/ha (0.60 kg-l/ha), third value column, time not printed) it was 99.1%; in the series on adult Sphenophorus levis (500 g of a.i/ha (1.00 kg-l/ha), 1DAA), 56.9%; in the series on adult Sphenophorus levis (500 g of a.i/ha (1.00 kg-l/ha), second value column, time not printed) it was 79.9%; in the series on adult Sphenophorus levis (500 g of a.i/ha (1.00 kg-l/ha), third value column, time not printed), 97.3%. Further, the “Adults % Control” value is recorded as 80% in the series with Mahanarva fimbriolata (150 g a.i./ha, 7 DAA); 100% with Mahanarva fimbriolata (150 g a.i./ha, 30 DAA); 75% with Mahanarva fimbriolata (150 g a.i./ha, 60 DAA); 80% in the series with Mahanarva fimbriolata (200 g a.i./ha, 7 DAA); 50% in the series with Mahanarva fimbriolata (200 g a.i./ha, 30 DAA); 100% in the series with Mahanarva fimbriolata (200 g a.i./ha, 60 DAA). Further, the “Adults % Control” value in the series on Mahanarva fimbriolata (250 g a.i./ha, 7 DAA) is recorded as 60%; in the series on Mahanarva fimbriolata (250 g a.i./ha, 30 DAA), 100%; in the series with Mahanarva fimbriolata (250 g a.i./ha, 60 DAA), 50%; with Mahanarva fimbriolata (300 g a.i./ha, 7 DAA), 40%; in the series with Mahanarva fimbriolata (300 g a.i./ha, 30 DAA), 25%; in the series with Mahanarva fimbriolata (300 g a.i./ha, 60 DAA) it was 100%. Also, the “Nymphs % Control” value in the series on Mahanarva fimbriolata (150 g a.i./ha, 30 DAA) was 62%; in the series with Mahanarva fimbriolata (150 g a.i./ha, 60 DAA) it was 95%; in the series on Mahanarva fimbriolata (200 g a.i./ha, 30 DAA), 97%; in the series with Mahanarva fimbriolata (200 g a.i./ha, 60 DAA), 95%; in the series on Mahanarva fimbriolata (250 g a.i./ha, 30 DAA), 92%; in the series with Mahanarva fimbriolata (250 g a.i./ha, 60 DAA) it was 100%. Further, the “Nymphs % Control” value is “complete control” in the series with Mahanarva fimbriolata (250 g a.i./ha, 60 DAA, listed as flupyrimin); 81% in the series on Mahanarva fimbriolata (300 g a.i./ha, 30 DAA); 95% in the series with Mahanarva fimbriolata (300 g a.i./ha, 60 DAA).
`CN1COCN(Cc2cnc(Cl)s2)/C1=N\[N+](=O)[O-]` [Thiamethoxam, thiamethoxam]: the mortality at 250 g/ha came to 23% in series [1] (0 DAA 3 DAI) and 25% in series [1] (0 DAA 5 DAI). In addition, the “Adults % Control” value was determined as 60% in the series on Mahanarva fimbriolata (250 g a.i./ha, 7 DAA); 50% with Mahanarva fimbriolata (250 g a.i./ha, 30 DAA); 75% in the series on Mahanarva fimbriolata (250 g a.i./ha, 60 DAA). Besides, the “Nymphs % Control” value in the series with Mahanarva fimbriolata (250 g a.i./ha, 30 DAA) was 86%; in the series on Mahanarva fimbriolata (250 g a.i./ha, 60 DAA), 90%.
